Laboratory results reported in patent publication US12157736B2, “Spiro-lactam NMDA modulators and methods of using same” (Tenacia Biotechnology (Hong Kong) Co., Limited, priority 2016, dated 2024).

How the values were obtained:
[1] = target: T1, NMDAR2A (Homo sapiens, UniProt Q12879); test: NMDAR agonist assay, [3H]MK-801 binding, NMDAR2A expressing HEK cell membranes; format: biochemical; details: 50 μM glutamate; for EC50: read-out: NMDAR2A: log EC50 (converted); for Emax: read-out: NMDAR2A: % maximal [3H]MK-801 binding relative to 1 mM glycine
T1 construct: expressed in transfected cells; host or cells: HEK cells (membrane extract)
T1 sequence (Q12879 23-1464, species assumed, other chains not shown): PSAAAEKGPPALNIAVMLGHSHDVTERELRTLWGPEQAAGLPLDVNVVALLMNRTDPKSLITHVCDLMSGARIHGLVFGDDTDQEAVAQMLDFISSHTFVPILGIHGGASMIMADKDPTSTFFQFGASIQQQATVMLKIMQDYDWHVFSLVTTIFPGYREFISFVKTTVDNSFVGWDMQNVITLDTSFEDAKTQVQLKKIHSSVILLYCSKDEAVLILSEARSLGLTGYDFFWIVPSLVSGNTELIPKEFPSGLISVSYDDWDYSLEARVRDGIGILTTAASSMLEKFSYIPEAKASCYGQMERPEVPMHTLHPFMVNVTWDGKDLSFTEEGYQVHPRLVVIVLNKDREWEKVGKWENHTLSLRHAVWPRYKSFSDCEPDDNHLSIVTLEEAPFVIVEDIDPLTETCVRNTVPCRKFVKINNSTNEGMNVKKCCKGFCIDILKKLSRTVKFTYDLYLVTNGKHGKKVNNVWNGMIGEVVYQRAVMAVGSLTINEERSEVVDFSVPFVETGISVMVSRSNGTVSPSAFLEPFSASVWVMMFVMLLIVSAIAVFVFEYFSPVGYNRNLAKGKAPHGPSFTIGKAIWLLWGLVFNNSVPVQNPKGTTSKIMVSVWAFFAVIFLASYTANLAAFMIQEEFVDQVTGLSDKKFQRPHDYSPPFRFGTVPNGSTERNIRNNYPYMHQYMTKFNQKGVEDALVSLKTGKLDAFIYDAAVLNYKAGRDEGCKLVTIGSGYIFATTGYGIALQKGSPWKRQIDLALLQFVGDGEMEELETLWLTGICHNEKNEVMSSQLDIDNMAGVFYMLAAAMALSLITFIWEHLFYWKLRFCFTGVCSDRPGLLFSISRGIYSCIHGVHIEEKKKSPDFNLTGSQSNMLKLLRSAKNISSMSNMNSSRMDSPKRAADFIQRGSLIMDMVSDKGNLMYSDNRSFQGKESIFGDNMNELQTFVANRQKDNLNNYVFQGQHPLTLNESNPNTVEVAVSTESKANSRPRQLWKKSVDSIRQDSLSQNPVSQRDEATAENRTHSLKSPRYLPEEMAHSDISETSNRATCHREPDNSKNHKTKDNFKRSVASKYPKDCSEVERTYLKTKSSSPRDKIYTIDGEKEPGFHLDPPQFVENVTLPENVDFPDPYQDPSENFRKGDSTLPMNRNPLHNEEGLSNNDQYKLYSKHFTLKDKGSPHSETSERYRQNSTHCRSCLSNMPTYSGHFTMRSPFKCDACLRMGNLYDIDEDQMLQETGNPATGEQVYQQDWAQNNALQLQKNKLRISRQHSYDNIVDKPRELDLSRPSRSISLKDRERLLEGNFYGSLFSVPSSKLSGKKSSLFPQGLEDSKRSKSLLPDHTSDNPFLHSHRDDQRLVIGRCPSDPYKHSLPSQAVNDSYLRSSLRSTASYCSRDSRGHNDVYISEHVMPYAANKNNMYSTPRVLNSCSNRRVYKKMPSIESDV
Procedure: (§1) Assays were conducted as described by Moskal et al., “GLYX-13: a monoclonal antibody-derived peptide that acts as an N-methyl-D-aspartate receptor modulator,” Neuropharmacology, 49, 1077-87, 2005. These studies were designed to determine if the test compounds act to facilitate NMDAR activation in NMDAR2A, NMDAR2B, NMDAR2C or NMDAR2D expressing HEK cell membranes as measured by increases in [^3H]MK-801 binding.
(§2) In the assay, 300 μg of NMDAR expressing HEK cell membrane extract protein was preincubated for 15 minutes at 25° C. in the presence of saturating concentrations of glutamate (50 μM) and varying concentrations of test compound (1×10^−15M−1×10^−7M), or 1 mM glycine. Following the addition of […] of [^3H]MK-801 (22.5 Ci/mmol), reactions were again incubated for 15 minutes at 25° C. (nonequilibrium conditions). Bound and free [^3H]MK-801 were separated via rapid filtration using a Brandel apparatus.
(§3) In analyzing the data, the DPM (disintegrations per minute) of [^3H]MK-801 remaining on the filter were measured for each concentration of test compound or for 1 mM glycine. The DPM values for each concentration of a ligand (N=2) were averaged. The baseline value was determined from the best fit curve of the DPM values modeled using the GraphPad program and the log(agonist) vs. response (three parameters) algorithm was then subtracted from all points in the dataset. The % maximal [3H]MK-801 binding was then calculated relative to that of 1 mM glycine: all baseline subtracted DPM values were divided by the average value for 1 mM glycine. The EC50 and % maximal activity were then obtained from the best fit curve of the % maximal [3H]MK-801 binding data modelled using the GraphPad program and the log(agonist) vs. response (three parameters) algorithm.
(§4) The tables below summarize the results for the wild type […] NMDAR2A, NMDAR2B, NMDAR2C, and NMDAR2D, and whether the compound is not an agonist (−), is an agonist (+), or is a strong agonist (++), where column A is based on the % maximal [3H]MK-801 binding relative to 1 mM glycine (−=0; <100%=+; and >100%=++); and column B is based on log EC50 values (0=−; ≥1×10^−9 M (e.g., −8)=+; and <1×10^−9 M (e.g., −10)=++).

[2] = target: T2, NMDAR2B (Homo sapiens, UniProt Q13224); test: NMDAR agonist assay, [3H]MK-801 binding, NMDAR2B expressing HEK cell membranes; format: biochemical; details: 50 μM glutamate; for EC50: read-out: NMDAR2B log EC50 (converted); for Emax: read-out: NMDAR2B: % maximal [3H]MK-801 binding relative to 1 mM glycine
T2 construct: expressed in transfected cells; host or cells: HEK cells (membrane extract)
T2 sequence (Q13224 27-1484, species assumed, other chains not shown): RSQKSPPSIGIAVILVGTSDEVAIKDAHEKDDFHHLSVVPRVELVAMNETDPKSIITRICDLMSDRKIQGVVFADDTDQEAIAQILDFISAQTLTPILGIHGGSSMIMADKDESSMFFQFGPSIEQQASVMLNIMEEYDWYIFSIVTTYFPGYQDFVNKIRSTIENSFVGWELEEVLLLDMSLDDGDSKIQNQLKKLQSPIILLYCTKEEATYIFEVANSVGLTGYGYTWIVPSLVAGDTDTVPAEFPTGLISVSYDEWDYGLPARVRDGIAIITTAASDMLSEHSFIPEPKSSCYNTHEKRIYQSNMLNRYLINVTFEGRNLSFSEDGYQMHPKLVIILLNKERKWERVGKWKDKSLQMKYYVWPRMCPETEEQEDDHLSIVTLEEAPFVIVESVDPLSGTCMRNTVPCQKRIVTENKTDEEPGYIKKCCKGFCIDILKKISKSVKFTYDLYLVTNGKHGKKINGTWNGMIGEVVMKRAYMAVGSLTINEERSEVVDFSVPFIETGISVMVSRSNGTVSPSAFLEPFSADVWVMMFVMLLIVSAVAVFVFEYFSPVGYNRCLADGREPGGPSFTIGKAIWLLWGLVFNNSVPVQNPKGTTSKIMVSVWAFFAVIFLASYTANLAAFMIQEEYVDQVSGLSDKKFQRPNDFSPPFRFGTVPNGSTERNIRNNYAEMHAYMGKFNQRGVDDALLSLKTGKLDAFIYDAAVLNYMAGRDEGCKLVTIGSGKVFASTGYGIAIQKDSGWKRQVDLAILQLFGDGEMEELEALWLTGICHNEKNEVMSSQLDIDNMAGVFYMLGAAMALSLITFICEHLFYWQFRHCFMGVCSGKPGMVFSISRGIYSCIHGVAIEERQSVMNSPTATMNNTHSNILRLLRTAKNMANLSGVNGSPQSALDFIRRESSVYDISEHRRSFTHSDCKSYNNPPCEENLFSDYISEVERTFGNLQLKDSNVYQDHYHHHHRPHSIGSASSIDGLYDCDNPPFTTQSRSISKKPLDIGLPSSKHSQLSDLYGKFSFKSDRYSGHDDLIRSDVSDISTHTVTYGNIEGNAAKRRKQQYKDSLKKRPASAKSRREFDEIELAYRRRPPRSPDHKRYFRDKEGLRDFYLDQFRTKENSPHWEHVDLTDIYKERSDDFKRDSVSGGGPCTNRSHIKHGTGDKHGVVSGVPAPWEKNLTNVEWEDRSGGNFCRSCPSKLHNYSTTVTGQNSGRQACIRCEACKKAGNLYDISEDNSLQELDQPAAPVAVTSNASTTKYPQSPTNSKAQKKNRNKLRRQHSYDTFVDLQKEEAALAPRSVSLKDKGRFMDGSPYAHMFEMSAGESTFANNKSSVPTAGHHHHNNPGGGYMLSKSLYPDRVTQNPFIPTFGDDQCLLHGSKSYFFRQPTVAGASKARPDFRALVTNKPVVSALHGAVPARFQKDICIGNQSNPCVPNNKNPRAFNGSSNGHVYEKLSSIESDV
Procedure: as §1, §2, §3, §4

[3] = IV pharmacokinetics; format: in vivo, Sprague Dawley rats; details: rat, 2 mg/kg, normal saline
Procedure: Sprague Dawley rats were dosed intravenously using a normal saline formulation containing 2 mg/kg of the compounds identified in the below table. The table below summarizes the results of the IV pharmacokinetics.

| Structure (SMILES) | EC50 [1] | NMDAR2B: % maximal [3H]MK-801 binding relative to 1 mM glycine [2] | EC50 [2] | other results |
| --- | --- | --- | --- | --- |
| C[C@@H](O)[C@@H](C(=O)N(C)C)N1CC2(CCNC(=O)C2)C1=O (single isomer, unassigned) [CC] | > 0.1 µM |  |  | Emax [1]: 0%; CI [3]: 15.65 mL/min/kg |
| C[C@@H](O)[C@@H](C(=O)N(C)C)N1CC2(CCNC(=O)C2)C1=O (single isomer, unassigned) [CD] |  |  |  | Emax [1]: < 100% |
| CC1CC(=O)N(c2ccc(F)cc2)C12CN(CC(N)=O)C2=O (single isomer, unassigned) [CE, 2-(5-(4-fluorophenyl)-8-methyl-1,6-dioxo-2,5-diazaspiro[3.4]octan-2-yl)acetamide] | > 0.1 µM | − (−=0) | > 0.1 µM |  |
| CC1CC(=O)N(c2ccc(F)cc2)C12CN(CC(N)=O)C2=O (single isomer, unassigned) [CF, 2-(5-(4-fluorophenyl)-8-methyl-1,6-dioxo-2,5-diazaspiro[3.4]octan-2-yl)acetamide] |  | + (<100%=+) |  | NMDAR2A: % maximal [3H]MK-801 binding relative to 1 mM glycine [1]: − (−=0) |
| COc1ccc(CN2CC3(CCN(C)C(=O)C3)C2=O)cc1 (single isomer, unassigned) [CI, 2-(4-methoxybenzyl)-7-methyl-2,7-diazaspiro[3.5]nonane-1,6-dione] |  |  |  | CI [3]: 32 mL/min/kg |
| COc1ccc(CN2CC3(CCN(C)C(=O)C3)C2=O)cc1 (single isomer, unassigned) [CJ, 2-(4-methoxybenzyl)-7-methyl-2,7-diazaspiro[3.5]nonane-1,6-dione] |  |  |  | Emax [2]: > 100% |
| COc1ccc(CN2CC3(CCNC(=S)C3)C2=S)cc1 (single isomer, unassigned) [CO, 2-(4-methoxybenzyl)-2,7-diazaspiro[3.5]nonane-1,6-dithione] |  |  | > 0.1 µM | Emax [2]: 0% |
| COc1ccc(CN2CC3(CCNC(=S)C3)C2=S)cc1 (single isomer, unassigned) [CP, 2-(4-methoxybenzyl)-2,7-diazaspiro[3.5]nonane-1,6-dithione] |  |  |  | Emax [2]: < 100% |
| COc1ccc(CN2CC3(CCN(CC(C)C)C(=O)C3)C2=O)cc1 (single isomer, unassigned) [CS, 7-isobutyl-2-(4-methoxybenzyl)-2,7-diazaspiro[3.5]nonane-1,6-dione] |  |  |  | Emax [2]: > 100% |
| COc1ccc(CN2CC3(CCN(CC(C)C)C(=O)C3)C2=O)cc1 (single isomer, unassigned) [CT, 7-isobutyl-2-(4-methoxybenzyl)-2,7-diazaspiro[3.5]nonane-1,6-dione] |  |  | > 0.1 µM | Emax [2]: 0% |
| O=C1CC2(CCN1)CN(Cc1ccccc1)C2=O (single isomer, unassigned) [CV, 2-benzyl-2,7-diazaspiro[3.5]nonane-1,6-dione] |  |  |  | Emax [1]: < 100% |
| CNC(=O)[C@H]([C@@H](C)O)N1CC2(CCNC(=O)C2)C1=O (single isomer, unassigned) [DA] | > 0.1 µM | − (−=0) | > 0.1 µM |  |
| CNC(=O)[C@H]([C@@H](C)O)N1CC2(CCNC(=O)C2)C1=O (single isomer, unassigned) [DB] |  | ++ (>100%=++) |  | NMDAR2A: % maximal [3H]MK-801 binding relative to 1 mM glycine [1]: − (−=0) |
| NC(=O)CN1CC2(CCNC(=O)C2)C1=O (single isomer, unassigned) [DC, 2-(1,6-dioxo-2,7-diazaspiro[3.5]nonan-2-yl)acetamide] |  |  |  | Emax [1]: < 100% |
| CN1CC2(CCNC(=O)C2)C1=O (single isomer, unassigned) [DH, 2-methyl-2,7-diazaspiro[3.5]nonane-1,6-dione] |  |  |  | Emax [2]: > 100% |
| CC1CC(=O)N(C)C12CN(CC(N)=O)C2=O (single isomer, unassigned) [DI, 2-(5,8-dimethyl-1,6-dioxo-2,5-diazaspiro[3.4]octan-2-yl)acetamide] |  |  |  | Emax [1]: < 100% |
| CC1CC(=O)N(C)C12CN(CC(N)=O)C2=O (single isomer, unassigned) [DJ, 2-(5,8-dimethyl-1,6-dioxo-2,5-diazaspiro[3.4]octan-2-yl)acetamide] | > 0.1 µM |  |  | Emax [1]: 0% |
| CC1CC(=O)N(c2ccc(F)cc2)C12CN([C@H](C(N)=O)[C@@H](C)O)C2=O (single isomer, unassigned) [DK] |  |  | > 0.1 µM |  |
| CC1CC(=O)N(c2ccc(F)cc2)C12CN([C@H](C(N)=O)[C@@H](C)O)C2=O (single isomer, unassigned) [DL] |  | − (−=0) |  | NMDAR2A: % maximal [3H]MK-801 binding relative to 1 mM glycine [1]: + (<100%=+) |

The next lines start with results.

| EC50 [1] | NMDAR2B: % maximal [3H]MK-801 binding relative to 1 mM glycine [2] | EC50 [2] | Structure (SMILES) | other results |
| --- | --- | --- | --- | --- |
| > 0.1 µM | + (<100%=+) |  | CC1CC(=O)N(c2ccc(F)cc2)C12CN(Cc1ccccc1)C2=O (single isomer, unassigned) [BX, 2-benzyl-5-(4-fluorophenyl)-8-methyl-2,5-diazaspiro[3.4]octane-1,6-dione] |  |
|  | − (−=0) | > 0.1 µM | CC1CC(=O)N(c2ccc(F)cc2)C12CN(Cc1ccccc1)C2=O (single isomer, unassigned) [BY, 2-benzyl-5-(4-fluorophenyl)-8-methyl-2,5-diazaspiro[3.4]octane-1,6-dione] | NMDAR2A: % maximal [3H]MK-801 binding relative to 1 mM glycine [1]: − (−=0) |
| > 0.1 µM | − (−=0) | > 0.1 µM | C[C@@H](O)[C@@H](C(=O)NCc1ccccc1)N1CC2(CCNC(=O)C2)C1=O (single isomer, unassigned) [CA] |  |
| > 0.1 µM | + (<100%=+) |  | CC1C(N)C(=O)N(C)C12CN(Cc1ccccc1)C2=O (single isomer, unassigned) [CG, 7-amino-2-benzyl-5,8-dimethyl-2,5-diazaspiro[3.4]octane-1,6-dione] |  |
|  | − (−=0) | > 0.1 µM | CC1C(N)C(=O)N(C)C12CN(Cc1ccccc1)C2=O (single isomer, unassigned) [CH, 7-amino-2-benzyl-5,8-dimethyl-2,5-diazaspiro[3.4]octane-1,6-dione] | NMDAR2A: % maximal [3H]MK-801 binding relative to 1 mM glycine [1]: − (−=0) |
| > 0.1 µM | − (−=0) | > 0.1 µM | CCN1CCC2(CC1=O)CN(Cc1ccc(OC)cc1)C2=O (single isomer, unassigned) [CK, 7-ethyl-2-(4-methoxybenzyl)-2,7-diazaspiro[3.5]nonane-1,6-dione] | NMDAR2A: % maximal [3H]MK-801 binding relative to 1 mM glycine [1]: − (−=0) |
| > 0.1 µM |  | > 0.1 µM | COc1ccc(CN2CC3(CCNC(=S)C3)C2=O)cc1 (single isomer, unassigned) [CM, 2-(4-methoxybenzyl)-6-thioxo-2,7-diazaspiro[3.5]nonan-1-one] |  |
| > 0.1 µM |  |  | O=C1CC2(CCN1)CN(Cc1ccccc1)C2=O (single isomer, unassigned) [CU, 2-benzyl-2,7-diazaspiro[3.5]nonane-1,6-dione] | Emax [1]: 0% |
|  | + (<100%=+) |  | CN1CCC2(CC1=O)CN(Cc1ccccc1)C2=O (single isomer, unassigned) [CX, 2-benzyl-7-methyl-2,7-diazaspiro[3.5]nonane-1,6-dione] | NMDAR2A: % maximal [3H]MK-801 binding relative to 1 mM glycine [1]: + (<100%=+) |
|  |  | > 0.1 µM | CCN1CCC2(CC1=O)CN(Cc1ccccc1)C2=O (single isomer, unassigned) [CY, 2-benzyl-7-ethyl-2,7-diazaspiro[3.5]nonane-1,6-dione] |  |
| > 0.1 µM |  |  | NC(=O)CN1CC2(CCNC(=O)C2)C1=O (single isomer, unassigned) [DD, 2-(1,6-dioxo-2,7-diazaspiro[3.5]nonan-2-yl)acetamide] | Emax [1]: 0% |
|  |  | > 0.1 µM | CN1CC2(CCNC(=O)C2)C1=O (single isomer, unassigned) [DG, 2-methyl-2,7-diazaspiro[3.5]nonane-1,6-dione] | Emax [2]: 0% |
|  |  | > 0.1 µM | CC1C(O)C(=O)N(C)C12CN(Cc1ccccc1)C2=O (single isomer, unassigned) [DM, 2-benzyl-7-hydroxy-5,8-dimethyl-2,5-diazaspiro[3.4]octane-1,6-dione] |  |
